Laboratory results: patent US6207172A, “Composition for the delivery of a pharmaceutical agent to a patient” (Warner-Lambert Company, priority 1998, dated 2001)
Read-outs that look alike come from different tables or passages of the source.

Experiments:
[1] = Mean particle size of the PEG/PVP formulation after filtration; assay type: physicochemical; details: diameter; PEG 3350/10% PVP pH 7.4 phosphate buffer formulation, filtered through 0.45 μm PTFE filter
Procedure: After formation of the composition for delivering a pharmaceutical agent to a patient, the composition has been successfully extruded through both 0.45 and […] nylon filters, yielding a particle size of around 500 or 300 nm, respectively. In addition, the compositions can be autoclaved. The compositions have also been freeze dried and can be reconstituted by the addition of water or a buffer.
To the melted phase were then added 3 mL of 10% PVP in pH 7.4 phosphate buffer with stirring. The mixture was stirred during cool-down to room temperature. Before administration, the formulation was filtered through a 0.45 μm PTFE filter. […] The final concentration was calculated to be 10 mg/mL.
Butyl-[2,5-dimethyl-7-(2,4,6-trimethyl-phenyl)-7H-pyrrolo[2,3-d]pyrimidin-4-yl]-ethyl-amine (CRF-1 receptor antagonist) was formulated in the PEG/PVP system as follows. Thirty milligrams of Butyl-[2,5-dimethyl-7-(2,4,6-trimethyl-phenyl)-7H-pyrrolo[2,3-d]pyrimidin- 4-yl]-ethyl-amine were dissolved in 1.5 g of molten (65° C.) PEG 3350. To the melted phase were then added 1.5 mL of 10% PVP in pH 7.4 phosphate buffer with stirring. The mixture was stirred during cool-down to room temperature. Before administration, the formulation was filtered through a 0.45 μm PTFE filter. […] The final concentration was calculated to be 10 mg/mL.

[2] = Oral pharmacokinetics in fasted male Wistar rats; assay type: in vivo; details: for AUC(0-t) at 8 h / Cmax: rat, blood, po, 10 mg/kg, fasted male Wistar rats
Procedure: Single, 10-mg/kg oral gavage doses of the Butyl-[2,5-dimethyl-7-(2,4,6-trimethyl-phenyl)-7H-pyrrolo[2,3-d]pyrimidin- 4-yl]-ethyl-amine PEG/PVP formulation were given to 3 fasted male Wistar rats. In parallel, single, 10-mg/kg oral gavage doses of Butyl-[2,5-dimethyl-7-(2,4,6-trimethyl-phenyl)-7H-pyrrolo[2,3-d]pyrimidin- 4-yl]-ethyl-amine, as an aqueous suspension in 0.1% Tween 80, were administered to 3 additional fasted male Wistar rats. Blood samples were serially drawn over the 24-hour period following administration and assayed for Butyl-[2,5-dimethyl-7-(2,4,6-trimethyl-phenyl)-7H-pyrrolo[2,3-d]pyrimidin- 4-yl]-ethyl-amine concentrations.

tumor-bearing mice [3] = assay: Tumor growth inhibition in tumor-bearing mice (change in tumor size from Day 1); assay type: in vivo; details: PEG/PVP 200 mg/kg daily vs DMA/lactate 400 mg/kg (200 mg/kg twice daily), oral gavage, 10 days
Excerpt: (§1) Single, 200-mg/kg daily oral gavage doses of the PEG/PVP formulation were given to 3 tumor-bearing mice for 10 days.

tumor-bearing mice [4] = assay: Deaths of tumor-bearing mice during 10 days oral gavage dosing; assay type: in vivo; details: 3 mice
Excerpt: as §1

[5] = PEG/PVP emulsion vs 0.1% Tween 80 suspension, 10 mg/kg oral

Row | Compound | Mean particle size [1] | AUC(0-8), difference between the 2 dose groups [2, 5] | Cmax, difference between the 2 dose groups [2, 5] | half-life, difference between the 2 dose groups [2, 5] | AUC(0-t) at 8 h ([2]; PEG/PVP emulsion, 10 mg/kg single oral gavage, read-out: AUC(0-8), PEG/PVP-dosed rats) [ng·h/mL] | Cmax ([2]; PEG/PVP emulsion, 10 mg/kg single oral gavage, read-out: Mean Cmax, PEG/PVP emulsion group) [ng/mL] | AUC(0-t) at 8 h ([2]; aqueous suspension in 0.1% Tween 80, 10 mg/kg single oral gavage, read-out: AUC(0-8), suspension-dosed) [ng·h/mL] | Cmax ([2]; aqueous suspension in 0.1% Tween 80, 10 mg/kg single oral gavage, read-out: Mean Cmax, 0.1% Tween group) [ng/mL] | Tumor growth inhibition, ratio PEG/PVP emulsion to DMA/lactate preparation (tumor-bearing mice [3]) [fold] | mice that died, DMA/lactate system (tumor-bearing mice [4]; DMA/lactate, 400 mg/kg (200 mg/kg oral gavage twice daily)) | mice that died, PEG/PVP preparation (tumor-bearing mice [4]; PEG/PVP, 200 mg/kg daily oral gavage)
1 | CCCCN(CC)c1nc(C)nc2c1c(C)cn2-c1c(C)cc(C)cc1C [Butyl-[2,5-dimethyl-7-(2,4,6-trimethyl-phenyl)-7H-pyrrolo[2,3-d]pyrimidin-4-yl]-ethyl-amine] | approximately 420 nm | Neither Cmax, AUC(0-8), nor half-life differed significantly between the 2 dose groups | Neither Cmax, AUC(0-8), nor half-life differed significantly between the 2 dose groups | Neither Cmax, AUC(0-8), nor half-life differed significantly between the 2 dose groups | 283 | 283 | 267 | 267 |  |  | 
2 | CNc1cc2c(Nc3cccc(Br)c3)ncnc2cn1 [N^4-(3-Bromo-phenyl)-N^6-methyl-pyrido[3,4-d]pyrimidine-4,6-diamine] | approximately 400 nm |  |  |  |  |  |  |  | 4 | all 3 mice dosed with the DMA/lactate system died | None of the mice given the PEG/PVP preparation died
